According to US12091393B2, “Small molecule vaccine adjuvant for enhancing or prolonging immune response” (The Regents of the University of California, priority 2018, dated 2024):
Like-named read-outs stand apart in the source and are kept apart here.

Experiments:
NF-κB [1] = experiment: Measurement of NF-κB activation using THP1-Blue NF-κB cells (SEAP); assay type: cell-based; settings: for NF-κB activity (SAR discussion, in words): evaluated in both the presence and absence of LPS
NF-κB [2] = experiment: cell-based NF-κB FRET assay; settings: compound + LPS; two point normalized, compound 1 as 200%, LPS (10 ng/mL) as 100%
Description: Site A was assigned the 4-substituent of thiazole ring, site B was the thiazole ring itself, site C was the central amide bond in the structure, site D was the benzene ring bearing 1,4-carboxyl and sulfamoyl group, site E was the sulfonamide functional group and site F was the amide substituent on the sulfamoyl group.

THP-1 cells = experiment: Cell viability assay (MTT); assay type: cell-based; settings: compound 5 μM alone, 18 h, normalized to DMSO as 100%
Procedure: THP-1 cells were plated in 96-well plates (10^5 cells/well) in 100 μL RPMI supplemented with 10% FBS, 100 U/mL penicillin and 100 μg/ml streptomycin. Compounds were dissolved in DMSO at 1 mM stock solution and were further diluted to 10 μM in the assay medium. 100 μL of this solution was added to the cells to obtain a final compound concentration of 5 μM ([…]). After 18 h incubation, a solution of MTT in assay media (0.5 mg/mL) was added to each well and further incubated for 4 to 6 h, followed by addition of cell lysis buffer (15% w/v SDS and 0.12% v/v 12N HCl aqueous solution), incubated overnight, and then absorbance measured at 570 nm using 650 nm as reference using Tecan Infinite M200 plate reader.

[3] = compound 5 μM + LPS, 20 h, two point normalized, compound 1 as 200%, LPS (10 ng/mL) as 100%, read-out: NF-κB SEAP Compound + LPS % Activation
[4] = compound 5 μM alone, 20 h, two point normalized, compound 1 as 200%, LPS or DMSO as 100%, read-out: NF-κB SEAP Compound alone % Activation

CCCc1csc(NC(=O)c2ccc(S(=O)(=O)N3CCCCC3)cc2)n1 [Compound 12i, 4-(piperidin-1-ylsulfonyl)-N-(4-propylthiazol-2-yl)benzamide]
activity at 5 µM (NF-κB [1]; [3]): 94.2%
activity at 5 µM (NF-κB [1]; [4]): 99.2%
NF-κB activity (SAR discussion, in words) (NF-κB [1]): None of these molecules had any NF-κB activity
NF-κB FRET Compound + LPS % Activation (NF-κB [2]): 112.46%
MTT Compound alone % Viability (THP-1 cells): 122.66%

CC(C)(C)Cc1csc(NC(=O)c2ccc(S(=O)(=O)N3CCCCC3)cc2)n1 [Compound 12j, N-(4-neopentylthiazol-2-yl)-4-(piperidin-1-ylsulfonyl)benzamide]
activity at 5 µM (NF-κB [1]; [3]): 93.9%
activity at 5 µM (NF-κB [1]; [4]): 99.5%
NF-κB activity (SAR discussion, in words) (NF-κB [1]): None of these molecules had any NF-κB activity
NF-κB FRET Compound + LPS % Activation (NF-κB [2]): 110.62%
MTT Compound alone % Viability (THP-1 cells): 125.52%

Cc1cccc(-c2csc(NC(=O)c3ccc(S(=O)(=O)N4CCCCC4)cc3)n2)c1C [Compound 12l, N-(4-(2,3-dimethylphenyl)thiazol-2-yl)-4-(piperidin-1-ylsulfonyl)benzamide]
activity at 5 µM (NF-κB [1]; [3]): 157%
activity at 5 µM (NF-κB [1]; [4]): 195%
NF-κB activity (SAR discussion, in words) (NF-κB [1]): retained activity
NF-κB FRET Compound + LPS % Activation (NF-κB [2]): 206.60%
MTT Compound alone % Viability (THP-1 cells): 98.37%

Cc1ccc(-c2csc(NC(=O)c3ccc(S(=O)(=O)N4CCCCC4)cc3)n2)c(C)c1 [Compound 12m, N-(4-(2,4-dimethylphenyl)thiazol-2-yl)-4-(piperidin-1-ylsulfonyl)benzamide]
activity at 5 µM (NF-κB [1]; [3]): 86.7%
activity at 5 µM (NF-κB [1]; [4]): 98.5%
NF-κB activity (SAR discussion, in words) (NF-κB [1]): inactive
NF-κB FRET Compound + LPS % Activation (NF-κB [2]): 161.33%
MTT Compound alone % Viability (THP-1 cells): 101.40%

Cc1ccc(-c2csc(NC(=O)c3ccc(S(=O)(=O)N4CCCCC4)cc3)n2)cc1C [Compound 12n, N-(4-(3,4-dimethylphenyl)thiazol-2-yl)-4-(piperidin-1-ylsulfonyl)benzamide]
activity at 5 µM (NF-κB [1]; [3]): 98%
activity at 5 µM (NF-κB [1]; [4]): 98.7%
NF-κB activity (SAR discussion, in words) (NF-κB [1]): inactive
NF-κB FRET Compound + LPS % Activation (NF-κB [2]): 128.01%
MTT Compound alone % Viability (THP-1 cells): 97.59%

Cc1cc(C)cc(-c2csc(NC(=O)c3ccc(S(=O)(=O)N4CCCCC4)cc3)n2)c1 [Compound 12o, N-(4-(3,5-dimethylphenyl)thiazol-2-yl)-4-(piperidin-1-ylsulfonyl)benzamide]
activity at 5 µM (NF-κB [1]; [3]): 93.2%
activity at 5 µM (NF-κB [1]; [4]): 98.2%
NF-κB activity (SAR discussion, in words) (NF-κB [1]): inactive
NF-κB FRET Compound + LPS % Activation (NF-κB [2]): 170.36%
MTT Compound alone % Viability (THP-1 cells): 92.91%

Cc1ccc2c(c1)-c1nc(NC(=O)c3ccc(S(=O)(=O)N4CCCCC4)cc3)sc1C2 [Compound 12r, N-(5-methyl-8H-indeno[1,2-d]thiazol-2-yl)-4-(piperidin-1-ylsulfonyl)benzamide]
activity at 5 µM (NF-κB [1]; [3]): 95.6%
activity at 5 µM (NF-κB [1]; [4]): 102%
NF-κB activity (SAR discussion, in words) (NF-κB [1]): weakly active
NF-κB FRET Compound + LPS % Activation (NF-κB [2]): 129.01%
MTT Compound alone % Viability (THP-1 cells): 82.46%

Cc1ccc2c(c1)-c1nc(NC(=O)c3ccc(S(=O)(=O)N4CCCCC4)cc3)sc1CC2 [Compound 12s, N-(8-methyl-4,5-dihydronaphtho[1,2-d]thiazol-2-yl)-4-(piperidin-1-ylsulfonyl)benzamide]
activity at 5 µM (NF-κB [1]; [3]): 141%
activity at 5 µM (NF-κB [1]; [4]): 128%
NF-κB activity (SAR discussion, in words) (NF-κB [1]): weakly active
NF-κB FRET Compound + LPS % Activation (NF-κB [2]): 159.62%
MTT Compound alone % Viability (THP-1 cells): 102.16%

C#Cc1ccc(C)c(-c2csc(NC(=O)c3ccc(S(=O)(=O)N4CCCCC4)cc3)n2)c1 [Compound 12t, N-(4-(5-ethynyl-2-methylphenyl)thiazol-2-yl)-4-(piperidin-1-ylsulfonyl)benzamide]
activity at 5 µM (NF-κB [1]; [3]): 90%
activity at 5 µM (NF-κB [1]; [4]): 101%
NF-κB activity (SAR discussion, in words) (NF-κB [1]): inactive
NF-κB FRET Compound + LPS % Activation (NF-κB [2]): 88.20%
MTT Compound alone % Viability (THP-1 cells): 82.42%

Cc1ccc(C)c(-c2c[nH]c(NC(=O)c3ccc(S(=O)(=O)N4CCCCC4)cc3)n2)c1 [Compound 18a, N-(4-(2,5-dimethylphenyl)-1H-imidazol-2-yl)-4-(piperidin-1-ylsulfonyl)benzamide]
activity at 5 µM (NF-κB [1]; [3]): 97.3%
activity at 5 µM (NF-κB [1]; [4]): 99.3%
NF-κB activity (SAR discussion, in words) (NF-κB [1]): none of these molecules that replaced the thiazole functionality were active
NF-κB FRET Compound + LPS % Activation (NF-κB [2]): 142.21%
MTT Compound alone % Viability (THP-1 cells): 50.69%

Cc1ccc(C)c(-c2cccc(NC(=O)c3ccc(S(=O)(=O)N4CCCCC4)cc3)n2)c1 [Compound 18b, N-(6-(2,5-dimethylphenyl)pyridin-2-yl)-4-(piperidin-1-ylsulfonyl)benzamide]
activity at 5 µM (NF-κB [1]; [4]): 99.6%
NF-κB activity (SAR discussion, in words) (NF-κB [1]): none of these molecules that replaced the thiazole functionality were active
NF-κB FRET Compound + LPS % Activation (NF-κB [2]): 146.10%
MTT Compound alone % Viability (THP-1 cells): 93.89%

Cc1ccc(C)c(-c2ccc(NC(=O)c3ccc(S(=O)(=O)N4CCCCC4)cc3)nc2)c1 [Compound 18c, N-(5-(2,5-dimethylphenyl)pyridin-2-yl)-4-(piperidin-1-ylsulfonyl)benzamide]
activity at 5 µM (NF-κB [1]; [3]): 97.9%
activity at 5 µM (NF-κB [1]; [4]): 98.3%
NF-κB activity (SAR discussion, in words) (NF-κB [1]): none of these molecules that replaced the thiazole functionality were active
NF-κB FRET Compound + LPS % Activation (NF-κB [2]): 73.65%
MTT Compound alone % Viability (THP-1 cells): 92.06%

Cc1ccc(C)c(-c2ccc(NC(=O)c3ccc(S(=O)(=O)N4CCCCC4)cc3)cn2)c1 [Compound 18d, N-(6-(2,5-dimethylphenyl)pyridin-3-yl)-4-(piperidin-1-ylsulfonyl)benzamide]
activity at 5 µM (NF-κB [1]; [3]): 97.2%
activity at 5 µM (NF-κB [1]; [4]): 98.2%
NF-κB activity (SAR discussion, in words) (NF-κB [1]): none of these molecules that replaced the thiazole functionality were active
NF-κB FRET Compound + LPS % Activation (NF-κB [2]): 58.39%
MTT Compound alone % Viability (THP-1 cells): 95.35%

CCN(CC)c1sc(NC(=O)c2ccc(S(=O)(=O)N3CCCCC3)cc2)nc1-c1cc(C)ccc1C [Compound 18g, N-(5-(diethylamino)-4-(2,5-dimethylphenyl)thiazol-2-yl)-4-(piperidin-1-ylsulfonyl)benzamide]
activity at 5 µM (NF-κB [1]; [3]): 98.1%
activity at 5 µM (NF-κB [1]; [4]): 98%
NF-κB activity (SAR discussion, in words) (NF-κB [1]): completely inactive
NF-κB FRET Compound + LPS % Activation (NF-κB [2]): 92.64%
MTT Compound alone % Viability (THP-1 cells): 94.30%

Cc1ccc(C)c(-c2nc(NC(=O)c3ccc(S(=O)(=O)N4CCCCC4)cc3)sc2N2CCCCC2)c1 [Compound 18h, N-(4-(2,5-dimethylphenyl)-5-(piperidin-1-yl)thiazol-2-yl)-4-(piperidin-1-ylsulfonyl)benzamide]
activity at 5 µM (NF-κB [1]; [3]): 99.9%
activity at 5 µM (NF-κB [1]; [4]): 99.2%
NF-κB activity (SAR discussion, in words) (NF-κB [1]): completely inactive
NF-κB FRET Compound + LPS % Activation (NF-κB [2]): 99.96%
MTT Compound alone % Viability (THP-1 cells): 89.45%

Cc1ccc(C)c(-c2nc(NC(=O)c3ccc(S(=O)(=O)N4CCCCC4)cc3)sc2-c2ccco2)c1 [Compound 18j, N-(4-(2,5-dimethylphenyl)-5-(furan-2-yl)thiazol-2-yl)-4-(piperidin-1-ylsulfonyl)benzamide]
activity at 5 µM (NF-κB [1]; [3]): 102%
activity at 5 µM (NF-κB [1]; [4]): 100%
NF-κB activity (SAR discussion, in words) (NF-κB [1]): completely inactive
NF-κB FRET Compound + LPS % Activation (NF-κB [2]): 160.49%
MTT Compound alone % Viability (THP-1 cells): 107.56%

CCSc1sc(NC(=O)c2ccc(S(=O)(=O)N3CCCCC3)cc2)nc1-c1cc(C)ccc1C [Compound 18k, N-(4-(2,5-dimethylphenyl)-5-(ethylthio)thiazo-2-yl)-4-(piperidin-1-ylsulfonyl)benzamide]
NF-κB SEAP Compound + LPS % Activation (NF-κB [1]; compound 5 μM + LPS, 20 h, two point normalized, compound 1 as 200%, LPS (10 ng/mL) as 100%): 104.47%
NF-κB SEAP Compound alone % Activation (NF-κB [1]; compound 5 μM alone, 20 h, two point normalized, compound 1 as 200%, LPS or DMSO as 100%): 100.75%
NF-κB activity (SAR discussion, in words) (NF-κB [1]): completely inactive
NF-κB FRET Compound + LPS % Activation (NF-κB [2]): 167.51%
MTT Compound alone % Viability (THP-1 cells): 111.74%
